Measured values reported in patent publication US12691112B2, “FGFR tyrosine kinase inhibitors for the treatment of urothelial carcinoma” (Janssen Pharmaceutica NV, priority 2019, dated 2026).

Tested on: subjects with metastatic or surgically unresectable urothelial cancer
[1] = all-causality, 6 mg continuous, n = 78

With `COc1cc(OC)cc(N(CCNC(C)C)c2ccc3ncc(-c4cnn(C)c4)nc3c2)c1` [erdafitinib, N-(3,5-dimethoxy-phenyl)-N′-(1-methylethyl)-N-[3-(1-methyl-1H-pyrazol-4-yl)quinoxalin-6-yl]ethane-1,2-diamine] the “Treatment-related Paronychia, grade 3” value (8 mg continuous, n = 99) was 3 (3) no. (%), the “Treatment-related Stomatitis, any grade” value (8 mg continuous, n = 99) was 54 (55) no. (%) and the “Treatment-related Stomatitis, grade 1” value (8 mg continuous, n = 99) was 19 (19) no. (%). For the same compound, the “Treatment-related Stomatitis, grade 2” value (8 mg continuous, n = 99) was 26 (26) no. (%), the “Treatment-related Stomatitis, grade 3” value (8 mg continuous, n = 99) was 9 (9) no. (%) and the “Treatment-related Vision blurred, any grade” value (8 mg continuous, n = 99) was 16 (16) no. (%). The “Treatment-related Vision blurred, grade 1” value (8 mg continuous, n = 99) was 10 (10) no. (%), the “Treatment-related Vision blurred, grade 2” value (8 mg continuous, n = 99) was 6 (6) no. (%) and the “Treatment-related Vision blurred, grade 3” value (8 mg continuous, n = 99) was 0 no. (%). The “Treatment-related Weight decreased, any grade” value (8 mg continuous, n = 99) was 10 (10) no. (%), the “Treatment-related Weight decreased, grade 1” value (8 mg continuous, n = 99) was 5 (5) no. (%) and the “Treatment-related Weight decreased, grade 2” value (8 mg continuous, n = 99) was 5 (5) no. (%). The “Treatment-related Weight decreased, grade 3” value (8 mg continuous, n = 99) was 0 no. (%), the “some type of eye disorder, regardless of relation to treatment” value (8 mg per day continuous) was 63% and the “treatment-related CSR grade ≥3 events” value (8 mg per day continuous) was 3%. For the same compound, the “treatment-related central serous retinopathy (CSR)” value (8 mg per day continuous) was 21%, the treatment-related dry skin (8 mg per day continuous) was 32% and the “treatment-related effects on the nails” value (8 mg per day continuous) was 52%. For the same compound, the “treatment-related effects on the skin” value (8 mg per day continuous) was 49%, the treatment-related hand-foot syndrome (8 mg per day continuous) was 22% and the treatment-related hyperphosphatemia (8 mg per day continuous) was 73%. The treatment-related nail dystrophy (8 mg per day continuous) was 16%, the treatment-related onycholysis (8 mg per day continuous) was 16% and the “patients with grade ≥3 treatment-emergent adverse events” value (8 mg per day continuous group uptitrated to 9 mg per day) was 68%. The “grade 1 or 2 events among patients with eye disorders” value (8 mg per day continuous, patients with eye disorders (n=62)) was 84%, the “Serious treatment-emergent: Dyspnea” value (10 mg intermittent, n = 33) was 2 (6) no. (%) and the “Serious treatment-emergent: Eye disorders” value (10 mg intermittent, n = 33) was 1 (3) no. (%). For the same compound, the “Serious treatment-emergent: Gastrointestinal disorders” value (10 mg intermittent, n = 33) was 2 (6) no. (%), the “Serious treatment-emergent: Infections and infestations” value (10 mg intermittent, n = 33) was 2 (6) no. (%) and the “Serious treatment-emergent: Metabolism and nutrition disorders” value (10 mg intermittent, n = 33) was 1 (3) no. (%). For the same compound, the “Serious treatment-emergent: Nervous system disorders” value (10 mg intermittent, n = 33) was 0 no. (%), the “Serious treatment-emergent: Renal and urinary disorders” value (10 mg intermittent, n = 33) was 1 (3) no. (%) and the “Serious treatment-emergent: Respiratory, thoracic, mediastinal disorders” value (10 mg intermittent, n = 33) was 4 (12) no. (%). For the same compound, the “Serious treatment-emergent: Urinary tract infection” value (10 mg intermittent, n = 33) was 0 no. (%), the “Serious treatment-emergent: Urosepsis” value (10 mg intermittent, n = 33) was 0 no. (%) and the “Total number of patients with serious treatment-emergent adverse events” value (10 mg intermittent, n = 33) was 14 (42) no. (%). For the same compound, the Hyperphosphatemia reported (Regimen 3) was 77%, the “hyperphosphatemia leading to dose reduction” value (Regimen 3) was 9% and the “hyperphosphatemia managed by dose interruption” value (Regimen 3) was 23%. For the same compound, the “patients discontinued due to treatment-emergent adverse events” value (Regimen 3) was 13%, the “patients reporting treatment-emergent adverse events” value (Regimen 3) was “All patients” and the “patients who required dose reduction” value (Regimen 3) was 56%. For the same compound, the “patients with serious treatment-emergent adverse events” value (Regimen 3) was 39%, the “stomatitis leading to dose reduction” value (Regimen 3) was 16% and the “treatment-emergent adverse events grade 3 or 4” value (Regimen 3) was 67%. For the same compound, the “patients who required ≥1 dose reduction” value (Regimen 3, among 41 patients uptitrated to 9 mg per day) was 59%, the “central serious retinopathy events resolved” value (all unresolved events grade 1 or 2) was “Seventy-six percent” and the “Abdominal pain, any grade” value [1] was 14 no. For the same compound, the “Abdominal pain, grade 1” value [1] was 7 no, the “Abdominal pain, grade 2” value [1] was 5 no and the “Abdominal pain, grade ≥ 3” value [1] was 2 no. The “Alanine aminotransferase increased, any grade” value [1] was 9 no, the “Alanine aminotransferase increased, grade 1” value [1] was 7 no and the “Alanine aminotransferase increased, grade 2” value [1] was 2 no. The “Alanine aminotransferase increased, grade ≥ 3” value [1] was 0 no, the “Alopecia, any grade” value [1] was 10 no and the “Alopecia, grade 1” value [1] was 9 no. For the same compound, the “Alopecia, grade 2” value [1] was 1 no, the “Alopecia, grade ≥ 3” value [1] was 0 no and the “Anemia, any grade” value [1] was 13 no. The “Anemia, grade 1” value [1] was 0 no, the “Anemia, grade 2” value [1] was 8 no and the “Anemia, grade ≥ 3” value [1] was 5 no. For the same compound, the “Arthralgia, any grade” value [1] was 8 no, the “Arthralgia, grade 1” value [1] was 5 no and the “Arthralgia, grade 2” value [1] was 2 no. For the same compound, the “Arthralgia, grade ≥ 3” value [1] was 1 no, the “Aspartate aminotransferase increased, any grade” value [1] was 9 no and the “Aspartate aminotransferase increased, grade 1” value [1] was 7 no. The “Aspartate aminotransferase increased, grade 2” value [1] was 2 no, the “Aspartate aminotransferase increased, grade ≥ 3” value [1] was 0 no and the “Asthenia, any grade” value [1] was 18 no. The “Asthenia, grade 1” value [1] was 5 no, the “Asthenia, grade 2” value [1] was 4 no and the “Asthenia, grade ≥ 3” value [1] was 9 no. The “Back pain, any grade” value [1] was 11 no, the “Back pain, grade 1” value [1] was 6 no and the “Back pain, grade 2” value [1] was 3 no. The “Back pain, grade ≥ 3” value [1] was 2 no, the “Blood creatinine increased, any grade” value [1] was 6 no and the “Blood creatinine increased, grade 1” value [1] was 3 no. The “Blood creatinine increased, grade 2” value [1] was 3 no, the “Blood creatinine increased, grade ≥ 3” value [1] was 0 no and the “Conjunctivitis, any grade” value [1] was 7 no. The “Conjunctivitis, grade 1” value [1] was 4 no and the “Conjunctivitis, grade 2” value [1] was 2 no.
